Results as given in patent publication US6429209B2, “Methods for treating irritable bowel syndrome” (SmithKline Beecham Corporation, priority 1997, dated 2002).
Like-named read-outs stand apart in the source and are kept apart here.

Assays:
[1] = tested on: IBS patients; assay: 12-week placebo-controlled clinical study of alosetron (1, 2, 4 or 8 mg BID) in nonconstipated IBS patients; format: in vivo, human; conditions: for % Responders (adequate relief of IBS pain and discomfort): 12 weeks; for % Days with Urgency / Stool # per day / Stool Consistentcy: mean, week 9-12 interval; for Stool Consistentcy: score 1= very hard to 5= watery; for % Weeks with adequate relief: median
Method: Three hundred and seventy IBS patients were randomised for study: 80 were randomised to treatment with placebo BID, 72 to 1 mg BID alosetron, 74 to 2 mg BID alosetron, 76 to 4 mg BID alosetron and 68 to 8 mg BID alosetron. […] Patients were required to have symptoms which fulfilled the Rome Criteria for IBS (5) for at least 6 months. […] Daily and weekly symptom data were collected using a recently described electronic touch-tone telephone based system (24,25). Patients underwent a 2 week screening period with no IBS treatment to ensure sufficient baseline level of abdominal pain as well as compliance with the data collection system. Pain was assessed daily on a 5 point scale (0=none; 1=mild; 2=moderate; 3=intense; 4=severe). Average baseline pain over the 2 week screening period was required to be between 1.5-3.3, inclusive, and at least 4 days with at least moderate pain was required for enrolment into the study. Stool consistency data were also collected (1=very hard; 2=hard; 3=formed; 4=loose; and 5=watery). During the screening period an average stool consistency score of ≧2.5 was required for entry into the study in order to exclude those with predominant constipation. Following the screening period, eligible patients were randomised with equal allocation to 12 weeks of study medication (BID) of placebo or alosetron 1, 2, 4 or 8 mg taken prior to meals. Patients were followed for 2 weeks post-treatment. During the screening period, treatment phase and follow-up period, patients were asked daily questions about their IBS symptoms. Once every 7 days, during the treatment phase of the study, patients responded to an additional question as to whether they had obtained adequate relief of their IBS-related abdominal pain and discomfort during the previous 7 days. For this study, a responder was prospectively defined as a patient who completed the treatment phase of the study and reported adequate relief of their IBS pain and discomfort for at least 6 weeks. […] In addition, a monthly responder was defined as a patient who reported adequate relief of their IBS pain and discomfort for at least 2 weeks per month. For the monthly analysis, a last observation carried forward procedure was employed, whereby a month with all missing weeks was assigned the number of weeks with adequate relief from the previous non-missing month. Thus, this analysis satisfied the Intent-to-Treat principle by including all patients and months. Treatment groups were compared for the proportion of patients defined as responders, for both endpoints, using a Mantel-Haenszel test stratified for investigator cluster. Finally, the proportion of weeks with adequate relief was compared between treatment groups using a log-rank test. Daily stool consistency scores and daily number of bowel movements were averaged over the baseline, weekly for weeks 1-4, and monthly (weeks 1-4, 5-8, and 9-12) intervals. In addition, the proportion of days patients experienced a sense of urgency was calculated over the monthly and weekly intervals. For the monthly intervals, the treatment groups were compared for change from baseline using a van Elteren test adjusted for investigator cluster. For the weekly intervals, the treatment groups were compared at each week using a van Elteren test adjusted for-investigator cluster.

[2] = tested on: IBS patients; conditions: cited from earlier work
[3] = tested on: normal volunteers; conditions: cited from earlier work
[4] = female patients, alosetron 1 mg BID
[5] = female patients, alosetron 1 mg BID, month 1
[6] = female patients, alosetron 1 mg BID, month 2
[7] = female patients, alosetron 1 mg BID, month 3
[8] = female patients, alosetron 2 mg BID
[9] = female patients, alosetron 4 mg BID
[10] = female patients, alosetron 8 mg BID

With `Cc1[nH]cnc1CN1CCc2c(c3ccccc3n2C)C1=O` [Alosetron, 2,3,4,5-tetrahydro-5-methyl-2-[(5-methyl-1 H-imidazol-4-yl)methyl]-1H-pyrido[4,3-b]indol-1-one] the “abdominal pain and bowel function” value ([1]; female IBS patients) was “significantly improved”, the “more responders for adequate relief as compared to placebo” value [1, 4] was 27% and the “% Responders (adequate relief of IBS pain and discomfort)” value [1, 4] was 60%. The monthly adequate relief ([1]; female patients, alosetron 1 mg BID, each month) was “statistically significant improvement”, the “% Responders, monthly intervals (adequate relief)” value (“% Responders, monthly intervals” below) [1, 5] was 53% and the “increase in monthly responders above placebo” value (shortened to “increase”) [1, 5] was 21%. The “% Responders, monthly intervals” value [1, 6] was 62%, the “increase” value [1, 6] was 20% and the “% Responders, monthly intervals” value [1, 7] was 60%. The “increase” value [1, 7] was 24%, the “% Responders (adequate relief of IBS pain and discomfort)” value [1, 8] was 59% and the “% Responders (adequate relief of IBS pain and discomfort)” value [1, 9] was 51%. For the same compound, the “% Responders (adequate relief of IBS pain and discomfort)” value [1, 10] was 52%, the “time of treatment after which a statistically significant benefit over placebo in bowel parameters was achieved” value ([1]; female patients, benefit persisted throughout 12 week treatment) was 1 week and the “% Days with Urgency” value [1, 4] was 33.0%. For the same compound, the “Stool # per day” value [1, 4] was 1.4, the “Stool Consistentcy” value [1, 4] was 2.1 and the “% Days with Urgency” value [1, 8] was 35.9%. For the same compound, the “Stool # per day” value [1, 8] was 1.7, the “Stool Consistentcy” value [1, 8] was 2.2 and the “% Days with Urgency” value [1, 9] was 37.8%. The “Stool # per day” value [1, 9] was 1.8, the “Stool Consistentcy” value [1, 9] was 2.4 and the “% Days with Urgency” value [1, 10] was 41.5%. For the same compound, the “Stool # per day” value [1, 10] was 1.3, the “Stool Consistentcy” value [1, 10] was 1.8 and the “% Weeks with adequate relief” value [1, 4] was 58%. The “% Weeks with adequate relief” value [1, 8] was 50%, the “% Weeks with adequate relief” value [1, 9] was 50% and the “% Weeks with adequate relief” value [1, 10] was 50%. For the same compound, the “stool consistency, bowel movement frequency and proportion of days with urgency as compared to placebo” value ([1]; female patients, most doses of alosetron) was “significantly improved”, the “proportion of weeks with adequate relief” value ([1]; male patients) was “no meaningful benefit” and the “% Responders (adequate relief of IBS pain and discomfort)” value ([1]; male patients, alosetron 1 mg BID) was 20%. For the same compound, the “% Responders (adequate relief of IBS pain and discomfort)” value ([1]; male patients, alosetron 2 mg BID) was 50%, the “% Responders (adequate relief of IBS pain and discomfort)” value ([1]; male patients, alosetron 4 mg BID) was 54% and the “% Responders (adequate relief of IBS pain and discomfort)” value ([1]; male patients, alosetron 8 mg BID) was 52%. The “responders for adequate relief relative to placebo” value ([1]; male population, any dose of alosetron) was “No meaningful improvement relative to placebo”, the “bowel-related functions with the exception of stool consistency, versus placebo” value ([1]; males) was “no significant improvement over placebo” and the “monthly adequate relief relative to placebo” value ([1]; males, any month, any dose of alosetron) was “No improvement relative to placebo”. The stool consistency ([1]; males, doses of alosetron higher than 1 mg BID) was “improved significantly”, the tolerability ([1]; nonconstipated female IBS patients) was “well tolerated” and the colonic transit ([2]; IBS patients, preliminary reports) was “slow colonic transit”. The abdominal pain ([2]; preliminary reports) was “improve abdominal pain”.
In the case of `CN1C2CCCC1CC(NC(=O)c1nn(C)c3ccccc13)C2` (stereo not shown) [granisetron], the post-prandial motor activity ([2]; IBS patients) is given as “reduce post-prandial motor activity” and the rectal sensitivity ([2]; IBS patients) is given as “decrease in rectal sensitivity”.
In the case of `Cc1nccn1CC1CCc2c(c3ccccc3n2C)C1=O` (stereo not shown) [ondansetron], the “contractile response of the colon” value ([3]; healthy volunteers, early postprandial period) is given as “inhibits the contractile response of the colon”, the colonic transit ([3]; normal volunteers) is given as “slow colonic transit” and the stool consistency ([2]; diarrhoea-predominant IBS patients) is given as “improves stool consistency”. The rectal compliance ([2]; patients with IBS) was “increases rectal compliance”.
